A short description of this data set: collision cross section in nitrogen (drift tube, single-field); higher = larger gas-phase ion size.
Where [1] appears, read: ion type: [M+H], ion source: ESI, ion mode: Positive.
The mark [2] stands for this setting: ion type: [M+Na], ion source: ESI, ion mode: Positive.
Where [3] appears, read: ion type: [M-H], ion source: ESI, ion mode: Negative.
The mark [4] stands for this setting: ion type: [M+H], ion source: APCI, ion mode: Positive.

Structures can show the parent of a compound that is named as a salt.
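Further: chemical standards at 10 µM analysed by drift tube IMS-QTOF MS in about 3.95 torr nitrogen, mean of duplicate injections differing ≤1%, mass error below 10 ppm.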

`CC1=C(C#N)C(=O)N(C)C(=O)C1` [1,2-Dihydro-6-hydroxy-1,4-dimethyl-2-oxonicotinonitrile]: the “collision cross section in nitrogen” value by setting is: under setting [1], 133.8 Å²; under setting [2], 144.6 Å²; under setting [3], 131.2 Å².
Take `CN(C)CCC=C1c2ccccc2CCc2ccccc21` [Amitriptyline hydrochloride]: the “collision cross section in nitrogen” value is 166.8 Å² under setting [4], 167.5 Å² under setting [1] and 175.7 Å² under setting [2].
Take `CCc1c(C(=O)O)c(=O)cnn1-c1ccc(Cl)cc1` [Clofencet-potassium]: the “collision cross section in nitrogen” value runs as follows: under setting [4], 159.2 Å²; under setting [1], 159 Å²; under setting [2], 175.3 Å²; under setting [3], 160.5 Å².
For the compound `CC(=O)Nc1ccc2c(c1)Cc1cc(NC(C)=O)ccc1-2` [2,7-Acetylaminofluorene], the “collision cross section in nitrogen” value under setting [4] is recorded as 176.3 Å²; the “collision cross section in nitrogen” value under setting [1] is reported as 175.7 Å²; the “collision cross section in nitrogen” value under setting [2] turned out to be 180.9 Å²; the “collision cross section in nitrogen” value (ion type: [M+], ion source: APCI, ion mode: Positive) stood at 167.4 Å²; the “collision cross section in nitrogen” value under setting [3] amounted to 174.7 Å².
In the case of `COC1=CC(=O)C[C@@H](C)[C@]12Oc1c(Cl)c(OC)cc(OC)c1C2=O` [Griseofulvin], the “collision cross section in nitrogen” value was 182 Å² under setting [4], 181.6 Å² under setting [1] and 189.6 Å² under setting [2].
For the compound `CCOP(=S)(S)OCC` [Ammonium diethyl dithiophosphate], the “collision cross section in nitrogen” value under setting [3] is listed as 134.4 Å².
In the case of `COC(=O)c1c(C(F)F)nc(C(F)(F)F)c(C2=NCCS2)c1CC(C)C` [Thiazopyr], the “collision cross section in nitrogen” value reads like this: under setting [4], 183.2 Å²; under setting [1], 182.1 Å²; under setting [2], 192.1 Å²; under setting [3], 182.6 Å².
In the case of `CCCCCCCCCCCCCC(=O)OCC(O)CO` (racemic) [(+/-)-2,3-Dihydroxypropyl tetradecanoate], the “collision cross section in nitrogen” value under setting [2] is reported as 183.7 Å².
On to `O=c1ccc2ccc(O)cc2o1` [Umbelliferone], for which the “collision cross section in nitrogen” value under setting [3] was found to be 127.4 Å².
Same read-out and setting: with `C=CCc1ccccc1O` [2-Allylphenol] the figure was 128.1 Å².
Consider `C=CCc1cc(S(=O)(=O)c2ccc(O)c(CC=C)c2)ccc1O` [4,4'-Sulfonylbis[2-(prop-2-en-1-yl)phenol]], for which the “collision cross section in nitrogen” value runs as follows: under setting [1], 182.5 Å²; under setting [2], 197.2 Å².
Regarding `CN(C)CCN(Cc1cccs1)c1ccccn1` [Methapyrilene hydrochloride], the “collision cross section in nitrogen” value by setting is: under setting [4], 157.6 Å²; under setting [1], 157.6 Å²; under setting [2], 160.1 Å².
Take `O=S(=O)(O)c1cc(S(=O)(=O)O)c2c(N=Nc3ccccc3)c(O)ccc2c1` [C.I. Acid Orange 10]: the “collision cross section in nitrogen” value under setting [3] amounted to 192.5 Å².
Regarding `OC(c1ccc(Cl)cc1)(c1ccc(Cl)cc1)c1cccnc1` [Parinol], the “collision cross section in nitrogen” value under setting [4] amounted to 183.7 Å², the “collision cross section in nitrogen” value under setting [1] is 183.1 Å² and the “collision cross section in nitrogen” value under setting [3] worked out at 177.2 Å².
Regarding `CC(C)c1ccc2c(c1)CC[C@H]1[C@](C)(CN)CCC[C@]21C` [Dehydroabietylamine acetate], the “collision cross section in nitrogen” value under setting [4] was determined as 188.9 Å².
Take `CN(C)C(=O)Nc1ccc(Cl)c(Cl)c1` [Diuron]: the “collision cross section in nitrogen” value under setting [4] came to 151.3 Å², the “collision cross section in nitrogen” value under setting [1] is 150.9 Å² and the “collision cross section in nitrogen” value under setting [3] was 147.5 Å².
On to `C=C[C@@]1(C)CC(=O)[C@]2(O)[C@@]3(C)[C@@H](O)CCC(C)(C)[C@@H]3[C@H](O)[C@H](OC(C)=O)[C@@]2(C)O1` [Forskolin], for which, under setting [2], the “collision cross section in nitrogen” value is on record as 194.3 Å².
In the case of `CCCc1c(OCCCOc2ccc(OCC(=O)O)cc2)ccc(C(C)=O)c1O`, the “collision cross section in nitrogen” value is reported as 186.1 Å² under setting [1], 191.7 Å² under setting [2] and 190.5 Å² under setting [3].
As to `CN(C)C(=O)Nc1ccc(Cl)cc1` [Monuron], the “collision cross section in nitrogen” value by setting is: under setting [4], 142.7 Å²; under setting [1], 143 Å²; under setting [3], 142.4 Å².
In the case of `CCCC(CCC)C(=O)O` [Sodium valproate], the “collision cross section in nitrogen” value under setting [3] came to 137 Å².
Consider `CC1(C)CC(N)CC(C)(C)N1` [2,2,6,6-Tetramethylpiperidin-4-amine], for which the “collision cross section in nitrogen” value under setting [4] was found to be 133.5 Å² and the “collision cross section in nitrogen” value under setting [1] is recorded as 135.1 Å².
With `CC(C)(C)NC[C@H](O)COc1nsnc1N1CCOCC1` [Timolol maleate salt], the “collision cross section in nitrogen” value amounted to 176.1 Å² under setting [4], 176.5 Å² under setting [1] and 172.7 Å² under setting [2].
For the compound `CCCCCCCCC(=O)O` [Nonanoic acid], the “collision cross section in nitrogen” value under setting [3] stood at 146.2 Å².
Regarding `COc1cc(C)cc(O)c1` [3-Methoxy-5-methylphenol], the “collision cross section in nitrogen” value under setting [3] came out at 130.1 Å².
Turning to `CC(COc1ccc(Oc2ccccc2)cc1)Oc1ccccn1` (configuration not stated) [Pyriproxyfen], the “collision cross section in nitrogen” value was 184.3 Å² under setting [4], 184.3 Å² under setting [1] and 185.4 Å² under setting [2].
In the case of `Cc1ccccc1C(=O)Nc1cccc(OC(C)C)c1` [Mepronil], the “collision cross section in nitrogen” value is, setting by setting: under setting [4], 169.9 Å²; under setting [1], 169.4 Å²; under setting [2], 180.1 Å²; under setting [3], 172.6 Å².
Regarding `CC(C)NCC(O)c1ccc(O)c(O)c1` (configuration not stated) [Isoproterenol hydrochloride], the “collision cross section in nitrogen” value under setting [1] came to 151 Å² and the “collision cross section in nitrogen” value under setting [3] stood at 151.9 Å².
For `CCCCCCCc1ccc(O)cc1` [4-Heptylphenol], under setting [3], the “collision cross section in nitrogen” value is reported as 157.1 Å².
As to `CCCC[n+]1ccccc1` [N-Butylpyridinium chloride], for the setting “ion source: ESI, ion mode: Positive, ion type: [M]+ (permanent cation)”, the “collision cross section in nitrogen” value was 127.7 Å².
`CC(C)CC(=O)C1C(=O)c2ccccc2C1=O` [2-Isovaleryl-1,3-indanedione]: under setting [3], the “collision cross section in nitrogen” value was 154.2 Å².
For the compound `CCCCCCCC/C=C\CCCCCCCC(=O)O` [Oleic acid], the “collision cross section in nitrogen” value under setting [3] was determined as 176.3 Å².
Consider `CC(C)=C[C@@H]1[C@@H](C(=O)OCc2coc(Cc3ccccc3)c2)C1(C)C` [Bioresmethrin], for which, under setting [2], the “collision cross section in nitrogen” value turned out to be 188.3 Å².
On to `CCN(CC)c1ccc2c(C)cc(=O)oc2c1` [7-Diethylamino-4-methylcoumarin], for which the “collision cross section in nitrogen” value runs as follows: under setting [4], 152.6 Å²; under setting [1], 152.6 Å²; under setting [2], 176.4 Å²; under setting [3], 159.4 Å².
With `CCCCOCCOCCO` [2-(2-Butoxyethoxy)ethanol], the “collision cross section in nitrogen” value under setting [2] is 141.5 Å².
For the compound `CNC1(c2ccccc2Cl)CCCCC1=O` (configuration not stated) [Ketamine hydrochloride], the “collision cross section in nitrogen” value is, setting by setting: under setting [4], 149.7 Å²; under setting [1], 149.4 Å²; under setting [2], 158.8 Å².
On to `CC(C)C1(C)N=C(c2ncccc2C(=O)O)NC1=O` (configuration not stated) [Imazapyr], for which the “collision cross section in nitrogen” value is 156.5 Å² under setting [4], 156.7 Å² under setting [1], 173.1 Å² under setting [2] and 161.8 Å² under setting [3].
Regarding `C=C(C)C(=O)Nc1ccc(Cl)c(Cl)c1` [Chloranocryl], the “collision cross section in nitrogen” value under setting [3] stood at 145.8 Å².
Regarding `C=CCO/N=C(\CCC)C1C(=O)CC(C)(C)C(C(=O)OC)C1=O` (configuration not stated) [Alloxydim sodium], the “collision cross section in nitrogen” value was determined as 175.7 Å² under setting [4], 175.7 Å² under setting [1], 179.4 Å² under setting [2] and 177.7 Å² under setting [3].
As for `Nc1ccc(N=Nc2ccccc2)c(N)c1` [C.I. Basic Orange 2], the “collision cross section in nitrogen” value is, setting by setting: under setting [4], 150.7 Å²; under setting [1], 151.2 Å²; under setting [3], 149.6 Å².
With `N=C(Nc1ccccc1)Nc1ccccc1` [1,3-Diphenylguanidine], the “collision cross section in nitrogen” value by setting is: under setting [4], 150.7 Å²; under setting [1], 150.8 Å².
Regarding `OC(Cc1ccccc1Cl)(Cn1cncn1)C1(Cl)CC1` (configuration not stated), the “collision cross section in nitrogen” value under setting [4] is 167.3 Å², the “collision cross section in nitrogen” value under setting [1] was 167 Å² and the “collision cross section in nitrogen” value under setting [2] is on record as 184.1 Å².
In the case of `Oc1ccnc(O)c1` [2,4-Dihydroxypyridine], the “collision cross section in nitrogen” value amounted to 119.5 Å² under setting [4], 120.2 Å² under setting [1] and 118.5 Å² under setting [3].
For the compound `CCCC(=NOCC)C1=C(O)CC(CC(C)SCC)CC1=O` (configuration not stated) [Sethoxydim], the “collision cross section in nitrogen” value by setting is: under setting [4], 181.6 Å²; under setting [1], 181 Å²; under setting [3], 178.5 Å².
Take `O=C1CCc2ccccc2O1` [3,4-Dihydrocoumarin]: under setting [3], the “collision cross section in nitrogen” value is 127.6 Å².
Turning to `CCOc1ccc(N=Nc2ccc(C=Cc3ccc(N=Nc4ccc(OCC)cc4)cc3S(=O)(=O)O)c(S(=O)(=O)O)c2)cc1` [C.I. Direct Yellow 12], the “collision cross section in nitrogen” value is, setting by setting: under setting [1], 278.7 Å²; under setting [2], 286.9 Å²; under setting [3], 279.3 Å².
With `CCN(CC)c1ccc(C(=C2C=CC(=[N+](CC)CC)C=C2)c2ccc(S(=O)(=O)O)cc2S(=O)(=O)[O-])cc1` [C.I. Acid Blue 1, sodium salt], the “collision cross section in nitrogen” value is given as 243 Å² under setting [1] and 255.4 Å² under setting [2].
In the case of `Cc1ccc(N(CCO)CCO)cc1` [2,2'-[(4-Methylphenyl)imino]diethanol], the “collision cross section in nitrogen” value runs as follows: under setting [4], 141.8 Å²; under setting [1], 143.4 Å²; under setting [2], 151 Å².
As for `CC(=O)[C@H]1[C@H](C#N)C[C@H]2[C@@H]3CC=C4C[C@@H](O)CC[C@]4(C)[C@H]3CC[C@@]21C` [Pregnenolone carbonitrile], under setting [3], the “collision cross section in nitrogen” value is listed as 189.5 Å².
For `N=C(N)c1ccc(OCCCCCOc2ccc(C(=N)N)cc2)cc1` [Pentamidine], the “collision cross section in nitrogen” value under setting [4] worked out at 176.9 Å².
Take `CCCCCCCCCCCC(=O)OC(C)C` [Isopropyl Laurate]: the “collision cross section in nitrogen” value under setting [3] worked out at 165.3 Å².
For `CN(C)CCCN1c2ccccc2CCc2ccccc21` [Imipramine hydrochloride], the “collision cross section in nitrogen” value is, setting by setting: under setting [4], 165.8 Å²; under setting [1], 166 Å²; under setting [2], 172.7 Å².
Turning to `CCCCCCCOC(=O)c1ccccc1C(=O)OCCCCCCC` [Diheptyl phthalate], under setting [2], the “collision cross section in nitrogen” value is reported as 209.9 Å².
Turning to `C=C(C)C(=O)OCCOCCOCCOCCOC(=O)C(=C)C` [Tetraethyleneglycol dimethacrylate], the “collision cross section in nitrogen” value under setting [4] is recorded as 171.2 Å² and the “collision cross section in nitrogen” value under setting [2] turned out to be 176.9 Å².

(Values after the supplement of paper PMC12317010.)
